# Numbers after ± are expanded uncertainties.
# Conditions: Crystal; Heating/Cooling curves
row,Triple point temperature,SMILES
1,216.52 ± 1 K,O=C=O [carbon dioxide]
2,181.99 ± 1 K,[N-]=[N+]=O [nitrous oxide]
3,118.02 ± 1 K,FC(F)F [trifluoromethane]

# — the NIST ThermoML archive (doi:10.1007/s10765-008-0511-0)
